# Entries after “also recorded” stand apart in the source; their conditions may differ. The star is where a group is joined. Palmitoyl = CCCCCCCCCCCCCCCC(=O)*; Chol = cholesterol residue
# Columns and labels:
# [1] = system: HGF; assay: qPCR (TLDA) HGF gene expression in HFDPC; format: cell-based, human; design: dose or concentration left out as unconfirmed; conditions: peptide, 24 hours, relative to untreated controls
# Method: (§1) RNA was extracted and purified from cell pellets using the RNA XS Kit (Macherey-Nagel). RNA quantification was carried out with a NanoDrop device and sample quality was verified on a Bioanalyzer with RNA 6000 Nano chips (Agilent). cDNA was synthesized from 300 ng of RNA using the High-Capacity cDNA Reverse Transcription Kit (LifeTech). Quality-control qPCR assays of the cDNA were carried out in microplates on the reference gene, GAPDH, and the SIRT1 gene.
# (§2) Final qPCR experiments were carried out in a 1 μl volume on microfluidic cards (TaqMan Low Density Arrays, LifeTech) and the ABI 7900HT qPCR device. Amplification reactions were performed in duplicate using 1 to 2 ng of cDNA per qPCR reaction and TaqMan Universal Master Mix II (LifeTech).
# (§3) Ct values were obtained using the RQ Manager software. For analyses of qPCR results, Ct values were limited to 35 cycles and the duplicate assays are averaged. The GeneXPro software was used for the studies of stability and of selection of the best reference genes. Expression variations are calculated by the relative quantification method and are expressed as percent increase in expression of the gene of interest relative to the untreated controls.
# [2] = system: NGF; assay: NGF secretion by NHDF (ELISA/BioPlex); format: cell-based, human; conditions: 48h
# Method: (§4) NHDF, HFDPC, HHFK and NHEM cells were treated with the peptides studied for 48h. At the end of the treatment, cell supernatants were collected and stored at −80° C. until analysis. The factors of interest secreted into the supernatant were assayed by ELISA® (R&D) or BioPlex® (BioRad®).
# (§5) The results are expressed as percent increase in the concentration of the factor present in the supernatant relative to the untreated control. The intensity of the effect varies as a function of the concentration of the peptide studied and of the cell type treated.
# [3] = system: SCF; assay: SCF secretion by NHDF (ELISA/BioPlex); format: cell-based, human; conditions: 10^−7 M, 48h
# Method: as §4, §5
# [4] = system: HGF; assay: HGF secretion by NHDF (ELISA/BioPlex); format: cell-based, human; conditions: 48h
# Method: as §4, §5
# [5] = system: immortalized human skin keratinocytes (HaCaT); assay: CellTiter-Blue proliferation of HaCaT; format: cell-based; conditions: 10^−5M, 72 hours
# Method: Cell proliferation and viability were evaluated in vitro with a kit from Promega, CellTiter-Blue® Cell Viability Assay, for estimating the number of living cells present in the culture. This kit is based on detection, by measurement of fluorescence, of conversion of the dye, resazurin, into a fluorescent product (resorufin) by living and thus metabolically active cells.
# The effect of the peptides tested, (1) and (9), at 4 different concentrations (10^−5, 10^−7, 10^−9 and 10^−11M) was examined on five cell types: immortalized human skin keratinocytes (HaCaT), human hair follicular keratinocytes (HHFK), normal human dermal fibroblasts (NHDF), hair follicle dermal papilla cells (HFDPC), and normal human epidermal melanocytes (NHEM) exposed to the molecule studied for 72 hours.
# [6] = system: KGF; assay: qPCR (TLDA) KGF gene expression in HFDPC; format: cell-based, human; design: dose or concentration left out as unconfirmed; conditions: peptide, 24 hours, relative to untreated controls
# Method: as §1, §2, §3
# [7] = system: IGF1; assay: qPCR (TLDA) IGF1 gene expression in HFDPC; format: cell-based, human; conditions: relative to untreated controls
# Method: (§6) To study the effect of 9 peptides on these genes, HFDPC were treated for 24 hours with the molecules tested at 10^−7M and 10^−9M concentrations.
# as §1, §2, §3
# [8] = system: BMP2; assay: qPCR (TLDA) BMP2 gene expression in HFDPC; format: cell-based, human; conditions: peptide 10^−7, 24 hours, relative to untreated controls
# Method: as §6, §1, §2, §3
# [9] = system: genes whose expression is reduced in subjects characterized by alopecia; assay: qPCR (TLDA) overall statement, genes involved in alopecia, HFDPC; format: cell-based, human; conditions: summary of Table 1
# Method: as §6, §1, §2, §3
# [10] = system: PDGF; assay: PDGF secretion by HFDPC (ELISA/BioPlex); format: cell-based, human; conditions: 48h
# Method: as §4, §5
# [11] = system: KGF; assay: KGF secretion by HFDPC (ELISA/BioPlex); format: cell-based, human; conditions: 48h
# Method: as §4, §5
# [12] = system: VEGF; assay: VEGF secretion by HFDPC (ELISA/BioPlex); format: cell-based, human; conditions: 48h
# Method: as §4, §5
# [13] = system: BMP2; assay: BMP2 secretion by HFDPC (ELISA/BioPlex); format: cell-based, human; conditions: 10^−9 M, 48h
# Method: as §4, §5
# [14] = system: VEGF; assay: VEGF secretion by NHDF (ELISA/BioPlex); format: cell-based, human; conditions: 48h
# Method: as §4, §5
# [15] = system: microdissected hairs from scalp surgery specimens; assay: Growth of isolated hair ex vivo; format: cell-based, human; conditions: for Growth at D 11/D 12 Vs Control: ex vivo isolated hair
# Method: (§7) This study was carried out on microdissected hairs from scalp surgery specimens from women aged 52 to 71 years. Isolated hairs were kept alive for 11 to 12 days in Williams medium, under conventional cell culture conditions (37° C., 5% CO2). […]
# (§8) To evaluate the effect of (1), (6) or (9) on hair growth, the hairs were photographed and their lengths measured using image analysis software. Thus, the growth of the hairs between D0 and D11/D12 could be calculated and compared with that of the untreated control. At the end of the treatments (D11 or D12), the hairs were collected and frozen or fixed for immunolabeling and histological staining.
# [16] = system: follicular markers; assay: Follicular markers in isolated hair ex vivo (immunolabeling); format: cell-based, human; conditions: end of treatment D11 or D12, value = marker increased
# Method: as §7, §8
# [17] = system: HGF; assay: HGF secretion by HFDPC (ELISA/BioPlex); format: cell-based, human; conditions: 48h
# Method: as §4, §5
# [18] = system: VEGF; assay: qPCR (TLDA) VEGF gene expression in HFDPC; format: cell-based, human; conditions: peptide 10^−5 M (table title), 24 hours, relative to untreated controls
# Method: as §1, §2, §3
# [19] = system: HGF; assay: HGF secretion by HHFK (ELISA/BioPlex); format: cell-based, human; conditions: 10^−7 M, 48h
# Method: as §4, §5
# [20] = system: VEGF; assay: VEGF secretion by NHEM (ELISA/BioPlex); format: cell-based, human; conditions: 10^−7 M, 48h
# Method: as §4, §5
# [21] = system: HGF; assay: HGF secretion by NHEM (ELISA/BioPlex); format: cell-based, human; conditions: 10^−7 M, 48h
# Method: as §4, §5
substance,measurement,setting,value
Chol-Ala-Arg-Pro-Ala-Lys-NH2 (Chol-ARPAK-NH2) [(7)],% stimulation HGF gene expression,[1],49%
same,"NGF secretion, percent increase relative to untreated control",[2]; 10^−7 M,NGF 11%
same,"SCF secretion, percent increase relative to untreated control",[3],SCF 10%
same,"HGF secretion, percent increase relative to untreated control",[4]; 10^−7 M,HGF 104%
H-Ala-Arg-Pro-Ala-Lys-OH (H-ARPAK-OH) [Peptide (1)],stimulation of proliferation of HaCaT,[5],+15%
same,% stimulation KGF gene expression,[6],14%
same,% stimulation IGF1 gene expression,"[7]; peptide 10^−7, 24 hours",32% (10^−7)
same,% stimulation BMP2 gene expression,[8],26% (10^−7)
same,stimulation of genes whose expression is reduced in alopecia (in words),[9],stimulate several genes
same,"PDGF secretion, percent increase relative to untreated control",[10]; 10^−7 M,PDGF 31%
same,"PDGF secretion, percent increase relative to untreated control",[10]; 10^−9 M,PDGF 23%
same,"KGF secretion, percent increase relative to untreated control",[11]; 10^−7 M,KGF 8%
same,"KGF secretion, percent increase relative to untreated control",[11]; 10^−9 M,KGF 25%
same,"VEGF secretion, percent increase relative to untreated control",[12]; 10^−7 M,VEGF 9%
same,"VEGF secretion, percent increase relative to untreated control",[12]; 10^−9 M,VEGF 4%
same,"BMP2 secretion, percent increase relative to untreated control",[13],BMP2 22%
same,"NGF secretion, percent increase relative to untreated control",[2]; 10^−9 M,NGF 13%
same,"VEGF secretion, percent increase relative to untreated control",[14]; 10^−7 M,VEGF 4%
same,"VEGF secretion, percent increase relative to untreated control",[14]; 10^−9 M,VEGF5%
same,"HGF secretion, percent increase relative to untreated control",[4]; 10^−9 M,HGF 18%
same,Growth at D 11/D 12 Vs Control,[15]; 10^−1 M,No effect
same,Growth at D 11/D 12 Vs Control,[15]; 10^−9 M,+40%
same,growth increase compared with minoxidil sulphate,"[15]; peptide 10^−9M, minoxidil sulphate 10^−5 M",close to that obtained after treatment with minoxidil sulphate
same,hair growth after 11 to 12 days of treatment ex vivo (in words),[15]; summary of Table 3,stimulate hair growth
same,Follicular markers increased Vs Control,[16]; 10^−1 M,Coll IV; also recorded: Laminin-5
same,Follicular markers increased Vs Control,[16]; 10^−9 M,Coll IV and CD34
H-Arg-Pro-Ala-Lys-OH (H-RPAK-OH) [(8)],% stimulation KGF gene expression,[6],14%
same,"HGF secretion, percent increase relative to untreated control",[17]; 10^−5 M,HGF 26%
same,"HGF secretion, percent increase relative to untreated control",[17]; 10^−7 M,HGF 129%
same,"HGF secretion, percent increase relative to untreated control",[4]; 10^−5 M,HGF 8%
Palm-Ala-Arg-Ala-Ala-Lys-NH2 (Palmitoyl-ARAAK-NH2; SMILES CCCCCCCCCCCCCCCC(=O)N[C@@H](C)C(=O)N[C@@H](CCCNC(=N)N)C(=O)N[C@@H](C)C(=O)N[C@@H](C)C(=O)N[C@@H](CCCCN)C(N)=O) [(5)],% stimulation VEGF gene expression,[18],10%
same,% stimulation IGF1 gene expression,"[7]; peptide 10^−7, 24 hours",29% (10^−7)
same,% stimulation IGF1 gene expression,"[7]; peptide 10^−9, 24 hours",16% (10^−9)
same,stimulation of genes whose expression is reduced in alopecia (in words),[9],stimulate several genes
same,"PDGF secretion, percent increase relative to untreated control",[10]; 10^−5 M,PDGF 39%
same,"PDGF secretion, percent increase relative to untreated control",[10]; 10^−7 M,PDGF 55%
same,"NGF secretion, percent increase relative to untreated control",[2]; 10^−5 M,NGF 15%
same,"VEGF secretion, percent increase relative to untreated control",[14]; 10^−5 M,VEGF 12%
same,"HGF secretion, percent increase relative to untreated control",[4]; 10^−7 M,HGF 21%
same,"HGF secretion, percent increase relative to untreated control",[19],HGF 104%
same,"VEGF secretion, percent increase relative to untreated control",[20],VEGF 5%
same,"HGF secretion, percent increase relative to untreated control",[21],HGF 8%

# Source: US10947273B2, “Peptides of use in the preventive and curative treatment of alopecia” (Institut Europeen de Biologie Cellulaire, priority 2015, dated 2021)
